Laboratory results taken from ChEMBL document CHEMBL5625248, “Identification of unique indolylcyanoethylenyl sulfonylanilines as novel structural scaffolds of potential antibacterial agents” (Eur J Med Chem, 2023).
≈ marks a conversion by molar mass, not a printed value.

Columns and labels:
Assay type in all cases: functional
Staphylococcus aureus [1] = experiment: Antibacterial activity against Staphylococcus aureus assessed as inhibition of bacterial growth incubated for 18 hrs by two fold broth microdilution assay
Enterococcus faecalis = experiment: Antibacterial activity against Enterococcus faecalis assessed as inhibition of bacterial growth incubated for 18 hrs by two fold broth microdilution assay
Klebsiella pneumoniae = experiment: Antibacterial activity against Klebsiella pneumoniae assessed as inhibition of bacterial growth incubated for 18 hrs by two fold broth microdilution assay
Acinetobacter baumannii = experiment: Antibacterial activity against Acinetobacter baumannii assessed as inhibition of bacterial growth incubated for 18 hrs by two fold broth microdilution assay
Staphylococcus aureus [2] = experiment: Antibacterial activity against methicilin-resistant Staphylococcus aureus N315 assessed as inhibition of bacterial growth incubated for 18 hrs by two fold broth microdilution assay
Escherichia coli [3] = experiment: Antibacterial activity against Escherichia coli ATCC 25922 assessed as inhibition of bacterial growth incubated for 18 hrs by two fold broth microdilution assay
Escherichia coli [4] = experiment: Antibacterial activity against Escherichia coli assessed as inhibition of bacterial growth incubated for 18 hrs by two fold broth microdilution assay
Staphylococcus aureus [5] = experiment: Antibacterial activity against Staphylococcus aureus ATCC 25923 assessed as inhibition of bacterial growth incubated for 18 hrs by two fold broth microdilution assay
Staphylococcus aureus [6] = experiment: Antibacterial activity against Staphylococcus aureus ATCC 29213 assessed as inhibition of bacterial growth incubated for 18 hrs by two fold broth microdilution assay
Pseudomonas aeruginosa [7] = experiment: Antibacterial activity against Pseudomonas aeruginosa assessed as inhibition of bacterial growth incubated for 18 hrs by two fold broth microdilution assay
Pseudomonas aeruginosa [8] = experiment: Antibacterial activity against Pseudomonas aeruginosa ATCC 27853 assessed as inhibition of bacterial growth incubated for 18 hrs by two fold broth microdilution assay

Row | Structure (SMILES) | MIC (Staphylococcus aureus [1]) | MIC (Enterococcus faecalis) | MIC (Klebsiella pneumoniae) | MIC (Acinetobacter baumannii) | MIC (Staphylococcus aureus [2]) | MIC (Escherichia coli [3]) | MIC (Escherichia coli [4]) | MIC (Staphylococcus aureus [5]) | MIC (Staphylococcus aureus [6]) | MIC (Pseudomonas aeruginosa [7]) | MIC (Pseudomonas aeruginosa [8])
1 | CC(=O)Nc1ccc(S(=O)(=O)/C(C#N)=C/c2cn(Cc3ccc([N+](=O)[O-])cc3)c3ccccc23)cc1 | 256 µg/mL (≈ 511 µM) | 128 µg/mL (≈ 256 µM) | 16 µg/mL (≈ 32 µM) | 64 µg/mL (≈ 128 µM) | 16 µg/mL (≈ 32 µM) | 64 µg/mL (≈ 128 µM) | 256 µg/mL (≈ 511 µM) | 256 µg/mL (≈ 511 µM) | 2 µg/mL (≈ 4 µM) | 128 µg/mL (≈ 256 µM) | 256 µg/mL (≈ 511 µM)
2 | N#C/C(=C\c1cn(Cc2ccccc2Cl)c2ccccc12)S(=O)(=O)c1ccc(N)cc1 | 1 µg/mL (≈ 2.23 µM) | 16 µg/mL (≈ 35.7 µM) | 1 µg/mL (≈ 2.23 µM) | 16 µg/mL (≈ 35.7 µM) | 256 µg/mL (≈ 571 µM) | 64 µg/mL (≈ 143 µM) | 32 µg/mL (≈ 71.4 µM) | 1 µg/mL (≈ 2.23 µM) | 2 µg/mL (≈ 4.46 µM) | 16 µg/mL (≈ 35.7 µM) | 2 µg/mL (≈ 4.46 µM)
3 | CC(=O)Nc1ccc(S(=O)(=O)/C(C#N)=C/c2cn(Cc3ccc(F)cc3F)c3ccccc23)cc1 | 8 µg/mL (≈ 16.3 µM) | 256 µg/mL (≈ 521 µM) | 256 µg/mL (≈ 521 µM) | 16 µg/mL (≈ 32.6 µM) | 64 µg/mL (≈ 130 µM) | 32 µg/mL (≈ 65.1 µM) | 128 µg/mL (≈ 260 µM) | 32 µg/mL (≈ 65.1 µM) | 32 µg/mL (≈ 65.1 µM) | 64 µg/mL (≈ 130 µM) | 64 µg/mL (≈ 130 µM)
4 | CC(=O)Nc1ccc(S(=O)(=O)/C(C#N)=C/c2cn(Cc3ccc(Cl)c(Cl)c3)c3ccccc23)cc1 | 128 µg/mL (≈ 244 µM) | 128 µg/mL (≈ 244 µM) | 64 µg/mL (≈ 122 µM) | 32 µg/mL (≈ 61 µM) | 256 µg/mL (≈ 488 µM) | 256 µg/mL (≈ 488 µM) | 128 µg/mL (≈ 244 µM) | 32 µg/mL (≈ 61 µM) | 4 µg/mL (≈ 7.63 µM) | 128 µg/mL (≈ 244 µM) | 16 µg/mL (≈ 30.5 µM)
5 | CCCCCCn1cc(/C=C(\C#N)S(=O)(=O)c2ccc(N)cc2)c2ccccc21 | 256 µg/mL (≈ 628 µM) | 4 µg/mL (≈ 9.82 µM) | 128 µg/mL (≈ 314 µM) | 8 µg/mL (≈ 19.6 µM) | 32 µg/mL (≈ 78.5 µM) | 64 µg/mL (≈ 157 µM) | 8 µg/mL (≈ 19.6 µM) | 2 µg/mL (≈ 4.91 µM) | 4 µg/mL (≈ 9.82 µM) | 8 µg/mL (≈ 19.6 µM) | 8 µg/mL (≈ 19.6 µM)
6 | CCn1cc(C(=O)O)c(=O)c2cc(F)c(N3CCNCC3)cc21 [NORFLOXACIN] | 2 µg/mL (≈ 6.26 µM) | 4 µg/mL (≈ 12.5 µM) | 2 µg/mL (≈ 6.26 µM) | 4 µg/mL (≈ 12.5 µM) | 8 µg/mL (≈ 25.1 µM) | 4 µg/mL (≈ 12.5 µM) | 4 µg/mL (≈ 12.5 µM) | 2 µg/mL (≈ 6.26 µM) | 1 µg/mL (≈ 3.13 µM) | 2 µg/mL (≈ 6.26 µM) | 4 µg/mL (≈ 12.5 µM)
7 | Cc1cccc2c(/C=C(\C#N)S(=O)(=O)c3ccc(N)cc3)c[nH]c12 | 256 µg/mL (≈ 759 µM) | 256 µg/mL (≈ 759 µM) | 4 µg/mL (≈ 11.9 µM) | 4 µg/mL (≈ 11.9 µM) | 128 µg/mL (≈ 379 µM) | 4 µg/mL (≈ 11.9 µM) | 64 µg/mL (≈ 190 µM) | 128 µg/mL (≈ 379 µM) | 32 µg/mL (≈ 94.8 µM) | 64 µg/mL (≈ 190 µM) | 64 µg/mL (≈ 190 µM)
8 | CC(=O)Nc1ccc(S(=O)(=O)/C(C#N)=C/c2cn(CC(=O)OC(C)(C)C)c3ccccc23)cc1 | 128 µg/mL (≈ 267 µM) | 128 µg/mL (≈ 267 µM) | 128 µg/mL (≈ 267 µM) | 128 µg/mL (≈ 267 µM) | 256 µg/mL (≈ 534 µM) | 256 µg/mL (≈ 534 µM) | 256 µg/mL (≈ 534 µM) | 128 µg/mL (≈ 267 µM) | 16 µg/mL (≈ 33.4 µM) | 128 µg/mL (≈ 267 µM) | 128 µg/mL (≈ 267 µM)
9 | N#C/C(=C\c1c[nH]c2ccccc12)S(=O)(=O)c1ccc(N)cc1 | 32 µg/mL (≈ 99 µM) | 32 µg/mL (≈ 99 µM) | 1 µg/mL (≈ 3.09 µM) | 8 µg/mL (≈ 24.7 µM) | 64 µg/mL (≈ 198 µM) | 4 µg/mL (≈ 12.4 µM) | 2 µg/mL (≈ 6.18 µM) | 128 µg/mL (≈ 396 µM) | 32 µg/mL (≈ 99 µM) | 4 µg/mL (≈ 12.4 µM) | 1 µg/mL (≈ 3.09 µM)
10 | CC(=O)Nc1ccc(S(=O)(=O)/C(C#N)=C/c2c[nH]c3cc(Br)ccc23)cc1 | 32 µg/mL (≈ 72 µM) | 32 µg/mL (≈ 72 µM) | 4 µg/mL (≈ 9 µM) | 16 µg/mL (≈ 36 µM) | 64 µg/mL (≈ 144 µM) | 64 µg/mL (≈ 144 µM) | 128 µg/mL (≈ 288 µM) | 128 µg/mL (≈ 288 µM) | 32 µg/mL (≈ 72 µM) | 64 µg/mL (≈ 144 µM) | 16 µg/mL (≈ 36 µM)
